Measurements published in ChEMBL document CHEMBL1201862, “PubChem BioAssay data set” (2004).
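The compound was tested at five concentrations on cells cultured in 96-well plates, with a 48-hour exposure period. GI50 marks 50% less growth.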 The source made the active and inactive calls. No stated cut-off is given here; in the data, active = GI50 up to about 1.1 µM and inactive = higher.

Assays:
Assay in all cases: inhibition of tumour cell growth, NCI panel, 48 h
UACC-257 = system: UACC-257
SK-MEL-2 = system: SK-MEL-2
K562 = system: K562
EKVX = system: EKVX
PC-3 = system: PC-3
MDA-MB-231 = system: MDA-MB-231
HCT-116 = system: HCT-116
A549 = system: A549
UACC-62 = system: UACC-62
OVCAR-4 = system: OVCAR-4
MCF7 = system: MCF7
HT-29 = system: HT-29
NCI-H522 = system: NCI-H522
NCI-H460 = system: NCI-H460
786-0 = system: 786-0
MOLT-4 = system: MOLT-4
KM12 = system: KM12
NCI-H226 = system: NCI-H226
T47D = system: T47D

Compound	GI50 (UACC-257)	GI50 (SK-MEL-2)	GI50 (K562)	GI50 (EKVX)	GI50 (PC-3)	GI50 (MDA-MB-231)	GI50 (HCT-116)	GI50 (A549)	GI50 (UACC-62)	GI50 (OVCAR-4)	GI50 (MCF7)	GI50 (HT-29)	GI50 (NCI-H522)	GI50 (NCI-H460)	GI50 (786-0)	GI50 (MOLT-4)	GI50 (KM12)	GI50 (NCI-H226)	GI50 (T47D)
C=C(Cl)C(C)(Cl)CCC(Br)C(C)(C)Cl (stereo not drawn)	15.9 µM (inactive)	19.3 µM (inactive)	33.9 µM (inactive)	47.2 µM (inactive)	25.6 µM (inactive)	15.2 µM (inactive)	15.2 µM (inactive)	29.9 µM (inactive)	14.9 µM (inactive)	16.2 µM (inactive)	16.6 µM (inactive)	15.8 µM (inactive)	11.2 µM (inactive)	26 µM (inactive)	17.5 µM (inactive)	28.4 µM (inactive)	21.9 µM (inactive)	41.8 µM (inactive)	
C/C(=C\CC/C=C(\C)CC/C=C(\C)CCC1SC1(C)C)CC/C=C(\C)CCC1OC1(C)C (stereo not drawn)		> 100 µM (inactive)	> 100 µM (inactive)	> 100 µM (inactive)			78 µM (inactive)	> 100 µM (inactive)		> 100 µM (inactive)		> 100 µM (inactive)	47.3 µM (inactive)	> 100 µM (inactive)	> 100 µM (inactive)	> 100 µM (inactive)	> 100 µM (inactive)	> 100 µM (inactive)	
CN(C)CCCNc1cnc2cc3ccccc3cc2n1	19.2 µM (inactive)	19.5 µM (inactive)	25.4 µM (inactive)	28 µM (inactive)	15.4 µM (inactive)	16.4 µM (inactive)	32.8 µM (inactive)	26 µM (inactive)	15.6 µM (inactive)	23.8 µM (inactive)	21.3 µM (inactive)	15 µM (inactive)	19.8 µM (inactive)	33.3 µM (inactive)	31 µM (inactive)	28.4 µM (inactive)	20 µM (inactive)	16.8 µM (inactive)	
CCOc1cc(NC(C)=O)ccc1C(=O)NN1C(=O)/C(=C/c2ccco2)N=C1c1ccccc1	> 100 µM (inactive)	> 100 µM (inactive)	26.8 µM (inactive)	74.3 µM (inactive)	> 100 µM (inactive)		> 100 µM (inactive)	> 100 µM (inactive)	> 100 µM (inactive)	> 100 µM (inactive)	> 100 µM (inactive)	> 100 µM (inactive)	24.9 µM (inactive)	> 100 µM (inactive)	> 100 µM (inactive)	22.3 µM (inactive)	> 100 µM (inactive)	> 100 µM (inactive)	> 100 µM (inactive)
C=C(Nc1nc2ccc(C)cc2s1)C(=O)C(CC)C(=O)C(CC)CC1C(=O)NC(=O)NC1=O (stereo not drawn)	> 100 µM (inactive)	> 100 µM (inactive)		> 100 µM (inactive)	> 100 µM (inactive)	> 100 µM (inactive)	> 100 µM (inactive)	> 100 µM (inactive)	> 100 µM (inactive)	> 100 µM (inactive)	> 100 µM (inactive)		> 100 µM (inactive)	> 100 µM (inactive)	> 100 µM (inactive)	> 100 µM (inactive)	> 100 µM (inactive)	> 100 µM (inactive)	
CN/N=C(/C=C/c1ccccc1)C(C)C	> 100 µM (inactive)	> 100 µM (inactive)	> 100 µM (inactive)	> 100 µM (inactive)	> 100 µM (inactive)		> 100 µM (inactive)	> 100 µM (inactive)	> 100 µM (inactive)	> 100 µM (inactive)	> 100 µM (inactive)	> 100 µM (inactive)	73.3 µM (inactive)	> 10 µM (inactive)	> 100 µM (inactive)	> 100 µM (inactive)	> 100 µM (inactive)	> 100 µM (inactive)	86.3 µM (inactive)
O=C1C2CCCC2N1Cc1ccccc1 (stereo not drawn)	> 100 µM (inactive)		> 100 µM (inactive)	> 100 µM (inactive)			> 100 µM (inactive)		> 100 µM (inactive)	23.3 µM (inactive)	> 100 µM (inactive)	> 100 µM (inactive)	> 100 µM (inactive)	> 100 µM (inactive)	> 100 µM (inactive)	> 100 µM (inactive)	> 100 µM (inactive)	> 100 µM (inactive)	> 100 µM (inactive)
O=[N+]([O-])C1(CO)COC(CCc2ccccc2)OC1 (stereo not drawn)	> 100 µM (inactive)	> 100 µM (inactive)	> 100 µM (inactive)	> 100 µM (inactive)			> 100 µM (inactive)	> 100 µM (inactive)	> 100 µM (inactive)	> 100 µM (inactive)		> 100 µM (inactive)	> 100 µM (inactive)	> 100 µM (inactive)	> 100 µM (inactive)	> 100 µM (inactive)	> 100 µM (inactive)		
CC(C)CCc1c(Cl)nc(Cl)nc1Cl	16.7 µM (inactive)	16 µM (inactive)	3.41 µM (inactive)	26.2 µM (inactive)	13.6 µM (inactive)		2.48 µM (inactive)	21.7 µM (inactive)	12 µM (inactive)	19.7 µM (inactive)	13.8 µM (inactive)	12.8 µM (inactive)	2.71 µM (inactive)	15.5 µM (inactive)	20.3 µM (inactive)	0.783 µM (active)	> 10 µM (inactive)	4.44 µM (inactive)	
CCOC(=O)CCC(C(=O)OCC)n1nnc2cc(Nc3c(C)[n+]([O-])c4ccc(Cl)cc4[n+]3[O-])ccc21 (stereo not drawn)	54.1 µM (inactive)	99.1 µM (inactive)	69.3 µM (inactive)	23.2 µM (inactive)	> 100 µM (inactive)		69.5 µM (inactive)	> 100 µM (inactive)	63.5 µM (inactive)	79.8 µM (inactive)	34.2 µM (inactive)	67.8 µM (inactive)	> 100 µM (inactive)	39.1 µM (inactive)	98.4 µM (inactive)	44.2 µM (inactive)	> 100 µM (inactive)	26.9 µM (inactive)	39.9 µM (inactive)
NNC(=O)COc1nc(-c2cccs2)nc2ccc(I)cc12		24.5 µM (inactive)		18.9 µM (inactive)	25.4 µM (inactive)		16.6 µM (inactive)	18.7 µM (inactive)	19.8 µM (inactive)	21.4 µM (inactive)	15.8 µM (inactive)	34.4 µM (inactive)	18.7 µM (inactive)	21.8 µM (inactive)	25.5 µM (inactive)	25.7 µM (inactive)	17.1 µM (inactive)	19.9 µM (inactive)	1.47 µM (inactive)
CC(=O)N(O)c1ccc(-c2nc3ccccc3s2)cc1	> 100 µM (inactive)	66.7 µM (inactive)	> 100 µM (inactive)		> 100 µM (inactive)	49.7 µM (inactive)	68.5 µM (inactive)	42.6 µM (inactive)	> 100 µM (inactive)	28.2 µM (inactive)		46.6 µM (inactive)	24.5 µM (inactive)	46.9 µM (inactive)	55.1 µM (inactive)	48.6 µM (inactive)	38.2 µM (inactive)	24.2 µM (inactive)	32.9 µM (inactive)
